From patent publication US8324390B2, “Tetrazole-substituted anthranilamides as pesticides” (Bayer CropScience AG, priority 2008, dated 2012)
Where two headings read alike, the source gives them in different places.

Tests used:
[1] = log P determination by HPLC (EEC Directive 79/831 Annex V.A8); assay type: physicochemical
Experimental: The measurements were carried out using an Agilent 1100 LC system with a 50*4.6 Zorbax Eclipse C18 1.8 μm column (oven temperature 55° C., flow rate 2.0 ml/min).
The following mobile phases were used:
Mobile phase A: acetonitrile+1000 μl of formic acid/l
Mobile phase B: Millipore water+900 μl of formic acid/l

[2] = system: caterpillars of the armyworm (Spodoptera frugiperda); assay: Spodoptera frugiperda test (SPODFR spray treatment); assay type: in vivo; conditions: Spodoptera frugiperda, foliar, read-out: effect in % (caterpillars killed)
Text: (§1) Solvent: 78.0 parts by weight of acetone

[3] = system: green peach aphid (Myzus persicae); assay: Myzus test (MYZUPE spray treatment); assay type: in vivo; conditions: Myzus persicae, foliar, read-out: effect in % (aphids killed)
Text: Solvent: 78 parts by weight of acetone
as §1

[4] = system: larvae of the mustard beetle (Phaedon cochleariae); assay: Phaedon test (PHAECO spray treatment); conditions: Phaedon cochleariae, in Brassica rapa, foliar, read-out: effect in % (beetle larvae killed)
[5] = reversed-phase HPLC, Zorbax Eclipse C18 column, determined by HPLC according to EEC Directive 79/831 Annex V.A8, read-out: log P
[6] = application rate 100 g/ha, maize leaf discs
[7] = application rate 100 g/ha, Chinese cabbage leaf discs
[8] = reversed-phase HPLC, Zorbax Eclipse C18 column, by HPLC according to EEC Directive 79/831 Annex V.A8, read-out: log P

Q: What does the source list for Cc1cc(I)cc(C(=O)NCC#N)c1NC(=O)c1cc(Cn2nnc(C(F)(F)F)n2)nn1-c1ncccc1Cl [Example 70]?
A: chromatographic logP ([1]; log P): 3.14; pest or weed control at 100 g/ha ([2]; in Zea mays): ≥ 80%; pest or weed control at 100 g/ha ([3]; in Brassica rapa): ≥ 80%; pest or weed control at 100 g/ha [4]: ≥ 80%

Q: With Cc1cc(Cl)cc(C(=O)NC(C)C)c1NC(=O)c1cc(Cn2nnnc2C(F)(F)C(F)(F)F)nn1-c1ncccc1Br [Example 513] as the compound, how does the chromatographic logP [1, 5] read?
A: The chromatographic logP was 3.54.

Q: And the pest or weed control at 100 g/ha [2, 6]?
A: Its pest or weed control at 100 g/ha is ≥ 80%.

Q: What about the pest or weed control at 100 g/ha [3, 7] of the same compound?
A: Its pest or weed control at 100 g/ha is ≥ 80%.

Q: And the pest or weed control at 100 g/ha [4]?
A: The pest or weed control at 100 g/ha was ≥ 80%.

Q: With Cc1cc(F)cc(C(N)=O)c1NC(=O)c1cc(Cn2nnc(C(F)(F)F)n2)nn1-c1ncccc1Cl [Example 45] as the compound, how does the chromatographic logP ([1]; log P) read?
A: The chromatographic logP was 2.46.

Q: What about the pest or weed control at 100 g/ha ([2]; in Zea mays) of the same compound?
A: Its pest or weed control at 100 g/ha is ≥ 80%.

Q: What about the pest or weed control at 100 g/ha ([3]; in Brassica rapa) of the same compound?
A: Its pest or weed control at 100 g/ha is ≥ 80%.

Q: And the pest or weed control at 100 g/ha [4]?
A: Its pest or weed control at 100 g/ha is ≥ 80%.

Q: What does the source list for N#CCNC(=O)c1cc(Cl)cc(Cl)c1NC(=O)c1cc(Cn2nnc(C(F)(F)F)n2)nn1-c1ncccc1Cl [Example 59]?
A: chromatographic logP ([1]; log P): 2.92; pest or weed control at 100 g/ha ([2]; in Zea mays): ≥ 80%; pest or weed control at 100 g/ha ([3]; in Brassica rapa): ≥ 80%; pest or weed control at 100 g/ha [4]: ≥ 80%

Q: For CNC(=O)c1cc(C#N)cc(C)c1NC(=O)c1cc(Cn2nnc(C(F)(F)F)n2)nn1-c1ncccc1F [Example 405], which chromatographic logP [1, 5] is on record?
A: Its chromatographic logP is 2.46.

Q: What about the pest or weed control at 100 g/ha [2, 6] of the same compound?
A: The pest or weed control at 100 g/ha was ≥ 80%.

Q: And the pest or weed control at 100 g/ha [3, 7]?
A: The pest or weed control at 100 g/ha was ≥ 80%.

Q: And the pest or weed control at 100 g/ha [4]?
A: Its pest or weed control at 100 g/ha is ≥ 80%.

Q: Which results are given for Cc1cc(Cl)cc(C(=O)NC(C)C)c1NC(=O)c1cc(Cn2nnc(C(F)(F)F)n2)nn1-c1ncccc1Br [Example 334]?
A: chromatographic logP [1, 8]: 3.49; pest or weed control at 100 g/ha [2, 6]: ≥ 80%; pest or weed control at 100 g/ha [3, 7]: ≥ 80%; pest or weed control at 100 g/ha [4]: ≥ 80%

Q: With Cc1cc(Br)cc(C(N)=O)c1NC(=O)c1cc(Cn2nnc(C(F)(F)F)n2)nn1-c1ncccc1Br [Example 353] as the compound, how does the chromatographic logP [1, 8] read?
A: Its chromatographic logP is 2.82.

Q: And the pest or weed control at 100 g/ha [2, 6]?
A: Its pest or weed control at 100 g/ha is ≥ 80%.

Q: What about the pest or weed control at 100 g/ha [3, 7] of the same compound?
A: Its pest or weed control at 100 g/ha is ≥ 80%.

Q: What about the pest or weed control at 100 g/ha [4] of the same compound?
A: The pest or weed control at 100 g/ha was ≥ 80%.

Q: What does the source list for CNC(=O)c1cc(C#N)cc(C)c1NC(=O)c1cc(Cn2nnc(C(F)(F)F)n2)nn1-c1ccccc1Br [Example 349]?
A: chromatographic logP [1, 8]: 3.15; pest or weed control at 100 g/ha [2, 6]: ≥ 80%; pest or weed control at 100 g/ha [3, 7]: ≥ 80%; pest or weed control at 100 g/ha [4]: ≥ 80%

Q: Which chromatographic logP ([1]; log P) does the source give for Cc1cc(C#N)cc(C(=O)NCC2CC2)c1NC(=O)c1cc(Cn2nnc(C(F)F)n2)nn1-c1ncccc1Cl [Example 269] here?
A: The chromatographic logP was 2.66.

Q: What about the pest or weed control at 100 g/ha ([2]; in Zea mays) of the same compound?
A: Its pest or weed control at 100 g/ha is ≥ 80%.

Q: And the pest or weed control at 100 g/ha ([3]; in Brassica rapa)?
A: The pest or weed control at 100 g/ha was ≥ 80%.

Q: And the pest or weed control at 100 g/ha [4]?
A: The pest or weed control at 100 g/ha was ≥ 80%.

Q: With Cc1cc(I)cc(C(N)=O)c1NC(=O)c1cc(Cn2nnnc2C(F)(F)F)nn1-c1ncccc1C(F)(F)F [Example 455] as the compound, how does the chromatographic logP [1, 5] read?
A: The chromatographic logP was 2.83.

Q: What about the pest or weed control at 100 g/ha [2, 6] of the same compound?
A: The pest or weed control at 100 g/ha was ≥ 80%.

Q: And the pest or weed control at 100 g/ha [3, 7]?
A: Its pest or weed control at 100 g/ha is ≥ 80%.

Q: What about the pest or weed control at 100 g/ha [4] of the same compound?
A: Its pest or weed control at 100 g/ha is ≥ 80%.

Q: For CSC[C@H](C)NC(=O)c1cc(Br)cc(C)c1NC(=O)c1cc(Cn2nnc(C(F)(F)F)n2)nn1-c1ncccc1Cl [Example 42], which chromatographic logP ([1]; log P) is on record?
A: The chromatographic logP was 3.77.

Q: What about the pest or weed control at 100 g/ha ([2]; in Zea mays) of the same compound?
A: Its pest or weed control at 100 g/ha is ≥ 80%.

Q: What about the pest or weed control at 100 g/ha ([3]; in Brassica rapa) of the same compound?
A: Its pest or weed control at 100 g/ha is ≥ 80%.

Q: And the pest or weed control at 100 g/ha [4]?
A: Its pest or weed control at 100 g/ha is ≥ 80%.

Q: With Cc1cc(C#N)cc(C(=O)NCC2CC2)c1NC(=O)c1cc(Cn2nnnc2C(F)(F)F)nn1-c1ccccc1Cl [Example 526] as the compound, how does the chromatographic logP [1, 5] read?
A: The chromatographic logP was 3.25.

Q: And the pest or weed control at 100 g/ha [2, 6]?
A: Its pest or weed control at 100 g/ha is ≥ 80%.

Q: And the pest or weed control at 100 g/ha [3, 7]?
A: The pest or weed control at 100 g/ha was ≥ 80%.

Q: And the pest or weed control at 100 g/ha [4]?
A: The pest or weed control at 100 g/ha was ≥ 80%.

Q: Which pest or weed control at 100 g/ha ([2]; in Zea mays) does the source give for Cc1cc(I)cc(C(=O)NC2CC2)c1NC(=O)c1cc(Cn2nnc(C(F)(F)C(F)(F)F)n2)nn1-c1ncccc1Cl [Example 217] here?
A: The pest or weed control at 100 g/ha was ≥ 80%.

Q: And the pest or weed control at 100 g/ha ([3]; in Brassica rapa)?
A: The pest or weed control at 100 g/ha was ≥ 80%.

Q: And the pest or weed control at 100 g/ha [4]?
A: The pest or weed control at 100 g/ha was ≥ 80%.

Q: With Cc1cc(C#N)cc(C(=O)NCCC(F)(F)F)c1NC(=O)c1cc(Cn2nnnc2C(F)(F)F)nn1-c1ncccc1Cl [Example 188] as the compound, how does the chromatographic logP ([1]; log P) read?
A: The chromatographic logP was 2.88.

Q: And the pest or weed control at 100 g/ha ([3]; in Brassica rapa)?
A: The pest or weed control at 100 g/ha was ≥ 80%.

Q: What about the pest or weed control at 100 g/ha [4] of the same compound?
A: Its pest or weed control at 100 g/ha is ≥ 80%.

Q: Which results are given for Cc1cc(I)cc(C(=O)NCC#N)c1NC(=O)c1cc(Cn2nnc(C(F)(F)F)n2)nn1-c1ncccc1C(F)(F)F [Example 240]?
A: pest or weed control at 100 g/ha [2, 6]: ≥ 80%; pest or weed control at 100 g/ha [3, 7]: ≥ 80%; pest or weed control at 100 g/ha [4]: ≥ 80%

Q: Which results are given for CCNC(=O)c1cc(I)cc(C)c1NC(=O)c1cc(Cn2nnc(C(F)(F)F)n2)nn1-c1ncccc1C(F)(F)F [Example 241]?
A: pest or weed control at 100 g/ha [2, 6]: ≥ 80%; pest or weed control at 100 g/ha [3, 7]: ≥ 80%; pest or weed control at 100 g/ha [4]: ≥ 80%

Q: What does the source list for Cc1cc(C#N)cc(C(N)=O)c1NC(=O)c1cc(Cn2nnnc2C(F)(F)C(F)(F)F)nn1-c1ncccc1Br [Example 517]?
A: chromatographic logP [1, 5]: 2.53; pest or weed control at 100 g/ha [3, 7]: ≥ 80%; pest or weed control at 100 g/ha [4]: ≥ 80%

Q: For Cc1cc(I)cc(C(=O)NC2CC2)c1NC(=O)c1cc(Cn2nnc(C(F)(F)F)n2)nn1-c1ncccc1C(F)(F)F [Example 246], which pest or weed control at 100 g/ha [2, 6] is on record?
A: Its pest or weed control at 100 g/ha is ≥ 80%.

Q: And the pest or weed control at 100 g/ha [3, 7]?
A: The pest or weed control at 100 g/ha was ≥ 80%.

Q: And the pest or weed control at 100 g/ha [4]?
A: Its pest or weed control at 100 g/ha is ≥ 80%.
